Laboratory results taken from paper PMC5571359, “Screening the Medicines for Malaria Venture Pathogen Box across Multiple Pathogens Reclassifies Starting Points for Open-Source Drug Discovery” (Antimicrobial Agents and Chemotherapy, 2017).
Like-named read-outs stand apart in the source and are kept apart here.

Legend:
[1] = tested on: NF54-pfs16-LUC-GFP stage IV gametocytes; assay: Plasmodium falciparum late stage gametocyte (LSG) image-based assay; assay type: cell-based
HEK293 cells = assay: HEK293 resazurin cell cytotoxicity assay
[2] = tested on: Plasmodium falciparum 3D7 asexual blood stage; settings: read-out: IC50 P. falciparum 3D7 ABS
[3] = tested on: T. cruzi intracellular amastigotes; assay: Intracellular anti-Trypanosoma cruzi image-based assay (amastigotes); assay type: cell-based
[4] = tested on: L. donovani MHOM/IN/80/DD8 intracellular amastigotes; assay: Leishmania donovani intracellular amastigote assay in THP-1 cells; assay type: cell-based
[5] = tested on: T. b. brucei 427 bloodstream trypanosomes; assay: T. b. brucei resazurin viability assay; assay type: cell-based, Trypanosoma brucei brucei
3T3 host cells = assay: T. cruzi assay, activity against 3T3 host cells; assay type: cell-based; settings: reference compound set; IA = inactive at 16.4 μM
Description: page 4: […] Puromycin, 71 chloroquine, artesunate, DHA, pyronaridine and pyrimethamine were also tested in 72 IC50 format to act as internal reference compounds. 73 74 Intracellular anti-Trypanosoma cruzi Assay Protocol 75 The host cell cytoplasm, in which the parasite resides, is identified by the fluorescent 76 marker, HCS CellMask Green. Parasite and host cell nuclei are detected with the 77 fluorescent DNA intercalator, Hoechst 33342. The Opera® High Content Screening 78 System is used to take images of wells and a spot detection algorithm is used to 79 identify parasites within the cytoplasm. 80 81 Briefly, 1x 10^3 3T3 cells were added to collagen coated 384-well plates and following 82 24 hrs incubation at 37 °C, a multiplicity of infection (MOI) of 5:1 parasite: host cells 83 were added to the plate using a Multidrop liquid handler. Following additional 24 hrs 84 incubation, extracellular parasites were washed from the plates and RPMI with no […] 86 added to all wells. The final volume of media in the primary screening assay, before 87 addition of compound, was modified slightly to 55 µL. One µL of compounds, provided 88 by Compounds Australia, were diluted by the addition of 25 µL of sterile water. This […] 91 donovani). Five microliters of this dilution was added to assay plates. The final […] The final concentrations of compounds in the […] Following 48 hrs incubation in the presence 97 of compounds, wells were fixed, stained and read on the Opera® High Content 98 Screening System to assess compound activity. 99 The Z′-factor, as a measure of assay reproducibility, was determined from a plate […] The positive control used to calculate activity against […] To 103 assess the sensitivity of the T. cruzi assay, activity of the reference compounds 104 benznidazole, NFX, posaconazole and puromycin were determined. […] 108 resazurin as a measure of parasite viability. 109 T. b. brucei trypanosomes were cultured in vitro in HM1-9 medium supplemented with […] Fifty-five µL of logarithmic phase […] 112 incubated for 24 hrs at 37°C /5% CO2. Compounds were subsequently added to the […] Following […] 116 37°C / 5% CO2 followed by 22 hrs at room temperature. […] The percent

[6] = tested on: L. infanium (macrophages); parameters: method as in Pbox supporting information; settings: ref Pbox supporting information; cited from earlier work
infected PMM = tested on: infected PMM; parameters: method as in Pbox supporting information; settings: ref Pbox supporting information, read-out: Toxicity on infected PMM Pbox IC50; cited from earlier work
[7] = tested on: L. donovani (macrophages); parameters: method as in Pbox supporting information; settings: ref Pbox supporting information; cited from earlier work
[8] = tested on: L. donovani axenic amastigotes; parameters: method as in PBox supporting information; settings: ref PBox supporting information; cited from earlier work
[9] = tested on: T. cruzi C4 β-galactosidase reporter parasite in MRC 5SV2 host cells; settings: cited from earlier work
HepG2 = settings: HepG2; ref PBox supporting information; cited from earlier work
T. brucei rhodesiense = settings: ref Pbox supporting information; read-out: T .b. rohdensie Pbox IC50; cited from earlier work
T. brucei brucei = settings: ref Pbox supporting information; read-out: T.b. brucei Pbox IC50; cited from earlier work
[10] = tested on: Plasmodium falciparum 3D7 asexual blood stage; assay: microbe, parasite or virus in culture
L. major = tested on: L. major; parameters: method as in Pbox supporting information; settings: ref Pbox supporting information; cited from earlier work
[11] = reference compound set, 11-point dose response, IA = inactive at 20 μM, read-out: IC50 P. falciparum NF54 LSG
[12] = reference compound set, 11-point dose response, IA = inactive at 20 μM
[13] = reference compound set, IA = inactive at 16.4 μM, read-out: IC50 T. cruzi intracellular amastigotes
[14] = read-out: IC50 L. donovani n = 1, reference compound set, first test, IA = inactive at 20 μM
[15] = read-out: IC50 L. donovani n = 2, reference compound set, second test, IA = inactive at 20 μM
[16] = reference compound set, IA = inactive at 20 μM, read-out: IC50 T. brucei brucei trypomastigotes
[17] = ref Pbox supporting information, read-out: T. cruzi Pbox IC50
[18] = Plasmodium falciparum, NF54, read-out: Antiplasmodial IC50 (GAM / LSG), PBox compounds, stage IV gametocytes, single determination
[19] = 3D7, read-out: Antiplasmodial IC50 (ABS), PBox compounds, P. falciparum 3D7
[20] = Homo sapiens, HEK293, read-out: HEK % Inhibition 20uM/IC50 Discovery Biology
[21] = Trypanosoma brucei, read-out: T b.brucei Discovery Biology IC50
[22] = Trypanosoma cruzi, intracellular amastigotes, read-out: T cruzi Discovery Biology IC50

Row | Compound | IC50 [6] | IC50 (infected PMM) | IC50 [7] | IC50 [8] | IC50 [9, 17] | HepG2 PBox CC20 (HepG2) | IC50 (T. brucei rhodesiense) | IC50 (T. brucei brucei) | other results
1 | CC(=O)OC[C@H]1O[C@@H]([S-])[C@H](OC(C)=O)[C@@H](OC(C)=O)[C@@H]1OC(C)=O.CCP(CC)CC.[Au+] [Auranofin, reference compound] |  |  |  |  |  |  |  |  | IC50 [1, 11]: 0.55 µM; IC50 (HEK293 cells; read-out: IC50 mammalian cell cytotoxicity HEK293, reference compound set): 2.2 µM; IC50 [2, 12]: 0.7 µM; IC50 [3, 13]: 3.02 µM; IC50 [4, 14]: 0.63 µM; IC50 [4, 15]: 2 µM; IC50 [5, 16]: 0.24 µM; IC50 (3T3 host cells): 4.9 µM
2 | C[C@H]1COc2c(N3CCN(C)CC3)c(F)cc3c(=O)c(C(=O)O)cn1c23 [Levofloxacin (–)-ofloxacin, reference compound] |  |  |  |  |  |  |  |  | IC50 [1, 11]: > 20 µM; IC50 [2, 12]: > 20 µM; IC50 [3, 13]: > 16.4 µM; IC50 [4, 14]: > 20 µM; IC50 [4, 15]: > 20 µM; IC50 [5, 16]: > 20 µM; IC50 (3T3 host cells): > 16.4 µM
3 | c1ccc(Oc2ccc(-c3cc(N4CCOCC4)[nH]n3)cc2)cc1 [MMV045105] | 21.5 µM | > 30 µM | > 30 µM | 3.87 µM | 16 µM | 7.5 µM | 1.29 µM | 3.45 µM | 
4 | Cc1nc(-c2ccccn2)nc(N(C)CCc2ccccc2)c1Cl [MMV658988] | 4.06 µM | 16.7 µM | 2.6 µM | 0.02 µM | 0.88 µM | 11.3 µM | 11.8 µM | 14.9 µM | IC50 [1, 18]: 0.3 µM; IC50 [10, 19]: 2.18 µM; IC50 ([9]; 7 days exposure, ref PBox supporting information, read-out: T. cruzi IC50 in the PBox supporting information file): < 1 µM; IC50 (HEK293 cells; [20]): > 20 µM; activity against T. cruzi at 8 μM in the Discovery Biology assay ([3]; 8 μM): no activity
5 | Cc1nc(-c2ccccn2)nc(NCCc2ccc(S(C)(=O)=O)cc2)c1Cl [MMV658993] | > 32 µM | 30 µM | > 30 µM | 2.05 µM | 4.44 µM | 27.9 µM | > 32 µM | > 32 µM | 
6 | FC(F)(F)c1cc(NCCc2ccccc2)nc(-c2ccccn2)n1 [MMV659010] | 16.2 µM | 30 µM | 5.17 µM | 0.25 µM | 4.25 µM | >80 µM | 27.2 µM | > 32 µM | IC50 [1, 18]: 1.71 µM; IC50 [10, 19]: > 8 µM; IC50 (HEK293 cells; [20]): > 20 µM
7 | N#CCN(CCCCN1CCN(c2ccc(F)cc2)CC1)C(=O)OCc1ccccc1 [MMV675997] | 25.4 µM | > 30 µM | 22.2 µM | > 100 µM | 4.62 µM |  | 16.4 µM | 24.9 µM | 
8 | COc1ccc(C(=N)N)cc1-c1cn(-c2ccc(C(=N)N)cc2)nn1 [MMV675998] | > 32 µM | 30 µM | > 30 µM | 14.3 µM | 21.5 µM | 5.5 µM | < 0.13 µM | 0.25 µM | IC50 (HEK293 cells; [20]): > 20 µM; IC50 [5, 21]: 0.27 µM
9 | O=C(Nc1c(O)cccc1-c1nc2c(C(=O)O)cccc2o1)c1cc(-c2ccccc2)on1 [MMV676008] | > 32 µM | > 30 µM | > 30 µM | 0.57 µM | > 32 µM | 5.7 µM | > 32 µM | > 32 µM | 
10 | Clc1ccc(Cl)c(CO[C@H]2CCCC[C@@H]2n2ccnc2)c1 [MMV676048] | 16.2 µM | 30 µM | 12.8 µM | 15.6 µM | 1.36 µM | 37.1 µM | 22.9 µM | > 32 µM | IC50 (HEK293 cells; [20]): > 20 µM; Emax ([3]; Trypanosoma cruzi, PBox kinetoplastid set compounds active against T. cruzi alone, read-out: Emax against T. cruzi (subefficacious effect)): < 100%; IC50 [3, 22]: 3.21 µM
11 | Clc1cccc(CO[C@H]2CCc3ccccc3[C@@H]2n2ccnn2)c1 [MMV676159] | > 32 µM | > 30 µM | > 30 µM | 6.6 µM | 3.08 µM | >80 µM | > 32 µM | > 32 µM | 
12 | c1ccc(Oc2ccc(-c3cc(CN4CCOCC4)[nH]n3)cc2)cc1 [MMV676161] | > 32 µM | 30 µM | 26.1 µM | 9.7 µM | 16 µM | 28.9 µM | 5.26 µM | 15.1 µM | 
13 | O=C(Nc1ccccc1-c1nc2c(C(=O)O)cccc2o1)c1ccccc1 [MMV676162] | > 32 µM | > 30 µM | > 30 µM | 0.4 µM | > 32 µM | >80 µM | > 32 µM | > 32 µM | 
14 | COC(=O)c1cccc2oc(-c3cccc(OC)c3NC(=O)c3cc(-c4ccccc4)on3)nc12 [MMV676186] | > 32 µM | > 30 µM | > 30 µM | 3.95 µM | > 32 µM | >80 µM | > 32 µM | > 32 µM | 
15 | Cc1ncc(-c2ccnc(Nc3ccc(S(C)(=O)=O)cc3)n2)n1C(C)C [MMV676604] | 1.15 µM |  |  |  | 1.08 µM | 0.179 µM | < 0.13 µM | 0.26 µM | IC50 ([10]; 3D7, read-out: Pf 3D7 Discovery Biology IC50, P. falciparum 3D7 asexual blood stage): 3.23 µM; IC50 (L. major): 3.15 µM; IC50 (HEK293 cells; Homo sapiens, HEK293, read-out: HEK % Discovery Biology IC50): 2.7 µM; IC50 [3, 22]: 1.18 µM; IC50 ([4]; Leishmania donovani, THP-1, intracellular amastigotes, some values marked *, read-out: L, donovani Discovery Biology IC50): 4.82 µM; IC50 [5, 21]: 0.14 µM
16 | Nc1ccc2ncnc(Nc3ccc(OCc4cccc(F)c4)c(Cl)c3)c2c1 [MMV688273] | > 32 µM |  |  |  | 4.03 µM | 9.7 µM | 13.1 µM | > 32 µM | IC50 (L. major): 10.4 µM
17 | O=C(CN1CCOCC1)Nc1ccc2ncnc(Nc3ccc(OCc4cccc(F)c4)c(Cl)c3)c2c1 [MMV688274] | > 32 µM |  |  |  | 0.95 µM | 10.9 µM | 3.07 µM | 5.31 µM | IC50 (L. major): 12.4 µM
18 | CN1CCN(S(=O)(=O)c2ccc(-c3ccc4c(Nc5ncc(Cl)cn5)ccnc4c3)cc2)CC1 [MMV688283] | 2.54 µM |  |  |  | 3.81 µM | 8.0 µM | 0.96 µM | 3.78 µM | IC50 [1, 18]: 4.1 µM; IC50 [10, 19]: 0.66 µM; IC50 (L. major): 8.51 µM; IC50 (HEK293 cells; [20]): > 20 µM; IC50 [5, 21]: 5.29 µM
19 | NCCC[C@](N)(C(=O)O)C(F)F [α-Difluoromethylornithine, reference compound] |  |  |  |  |  |  |  |  | IC50 [1, 11]: > 20 µM; IC50 [2]: > 20 µM; IC50 [3, 13]: > 16.4 µM; IC50 [4, 14]: > 20 µM; IC50 [4, 15]: > 20 µM; IC50 [5, 16]: > 20 µM; IC50 (3T3 host cells): > 16.4 µM
